test: recombinant barcode read abundance after kanamycin selection (control-corrected) (log10(CPM+1)); higher = more efficient recombination; sequences stand for … in AGTGCAGAGAAAATCGGCCAGTTTTCTCTGCCTGCAGTCCGCATGCCGT…AGATTTATGCAGCGGACTGCCTTTCTCCCAAAGTGATAAACCGGACAGTATCATGGACCGGTTTTCCCGGTAATCCGTATTTGCAAGGTTGGTTTCACT; site = the 11-nt target
How it was run: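 The screen was pooled in E. coli and paired targets with IS621 bridge RNA target-binding loops. Recombination efficiency is taken from barcode counts per million at recombinant junctions, averaged and adjusted against the control. Values, in the form log10(CPM+1), come from duplicate plating on chloramphenicol/ampicillin LB agar or on chloramphenicol/ampicillin/kanamycin with 0.1 mM IPTG.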
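Note: IS621 recombinase and bridge RNA in Escherichia coli cells.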

Row | Sequence | recombinant barcode read abundance (log10)
1 | GCAGGTCCTTGGGTTCTAACCTGTTGCCT (site GCCGGTCCTAG) | 0.512
2 | ACGGCTACTTGGGTTCTAACCTGTTGCTT (site ACGGCTACTAA) | 0.83
3 | ATCAGTTCTTGGGTTCTAACCTGTTGCTG (site ATCAGTTCTCA) | 0.074
4 | TCTCGGACTTGGGTTCTAACCTGTTGCCT (site TCCCGGACTAG) | 0.0144
5 | TAGTCCTCTTGGGTTCTAACCTGTTGCTA (site TAGTCCTCTGA) | 0.0492
6 | TAGTATCCTTGGGTTCTAACCTGTTGCCT (site TAGTAAGCTAG) | 0.433
7 | GTCGCCACTTGGGTTCTAACCTGTTGCCT (site GTTGCCACTAG) | 0.196
8 | GAGCCGACTTGGGTTCTAACCTGTTGCAG (site TAGCCGGCTCT) | 0.0779
9 | CTAAATACTTGGGTTCTAACCTGTTGCGT (site CTACATTCTAC) | 0.00955
10 | CCAAGCACTTGGGTTCTAACCTGTTGCCT (site CCAAGCTCTAG) | 0.172
11 | GGCTAACCTTGGGTTCTAACCTGTTGCCT (site CATCGGACTTT) | 0.0416
12 | TTGGTACCTTGGGTTCTAACCTGTTGCCT (site TTGGTCCCTAG) | 0.204
13 | CGAGCTCCTTGGGTTCTAACCTGTTGCGT (site CGAGCTCCTAA) | 0.0215
14 | CAAAGTCCTTGGGTTCTAACCTGTTGCGT (site CAAAGTCCTAG) | 0.294
15 | TCTAGTCCTTGGGTTCTAACCTGTTGCCT (site TCTAGTCCTAG) | 0.036
16 | ATATGTACTTGGGTTCTAACCTGTTGCAG (site ATATGTACTCT) | 2.1
17 | ACCCTTACTTGGGTTCTAACCTGTTGCCT (site AGCCTTACTAG) | 0.00699
18 | CTCTGCTCTTGGGTTCTAACCTGTTGCTT (site CTCTGCTCTAA) | 0.245
19 | GGTTGACCTTGGGTTCTAACCTGTTGCGG (site GGTTGGCCTCC) | 0.0632
20 | CTTACGGCTTGGGTTCTAACCTGTTGCCT (site CTTACTGCTAG) | 0.262
21 | ACAGGAGCTTGGGTTCTAACCTGTTGCGG (site ACAGGAGCTCC) | 2.61
22 | TCCCCGACTTGGGTTCTAACCTGTTGCCG (site TCGCCTACTCG) | 0.03

Row | Sequence | recombinant barcode read abundance (log10)
23 | AGTAAGACTTGGGTTCTAACCTGTTGCGT (site AGTAAGACTAC) | 2.25
24 | CGTATGACTTGGGTTCTAACCTGTTGCCT (site GGTATGACTAG) | 0.103
25 | TGTAGAGCTTGGGTTCTAACCTGTTGCCG (site TGTTGAGCTCG) | 0.258
26 | CGTGAGACTTGGGTTCTAACCTGTTGCCT (site CGTTAGACTAG) | 0.0487
27 | GAGGGTCCTTGGGTTCTAACCTGTTGCGT (site GAGGGTCCTAC) | 2.82
28 | AGCGCTCCTTGGGTTCTAACCTGTTGCCT (site ATCGCTCCTAG) | 0
29 | TCCGCGACTTGGGTTCTAACCTGTTGCCT (site TCAGCGACTAG) | 0.0444
30 | TCGTTCCCTTGGGTTCTAACCTGTTGCTT (site TCGTTCCCTAA) | 0.105
31 | TGCGTCCCTTGGGTTCTAACCTGTTGCCT (site TGCGTCCCTAG) | 0.291
32 | CTCAAACCTTGGGTTCTAACCTGTTGCTT (site CTCACACCTAA) | 0.15
33 | CAGTGAACTTGGGTTCTAACCTGTTGCCT (site CCGTGAACTAG) | 0.181
34 | GGTTGACCTTGGGTTCTAACCTGTTGCGG (site GGTTGCCCTCC) | 0.0589
35 | TCATAGCCTTGGGTTCTAACCTGTTGCTG (site TCAAAGCCTCA) | 0.131
36 | GTGTACTCTTGGGTTCTAACCTGTTGCTT (site GTGTACTCTAA) | 1.35
37 | ATCAGTTCTTGGGTTCTAACCTGTTGCTG (site GATTTCGCTAG) | 0.155
38 | TGAGGGGCTTGGGTTCTAACCTGTTGCCT (site TGAGAGGCTAG) | 0.275
39 | CGTTCCTCTTGGGTTCTAACCTGTTGCCT (site CGTTCCTCTAG) | 0.519
40 | GTCGCCACTTGGGTTCTAACCTGTTGCCT (site GTCGCCACTAG) | 0.0549
41 | AGGAACTCTTGGGTTCTAACCTGTTGCAT (site AGGAACTCTAT) | 2.44
42 | CACAAGTCTTGGGTTCTAACCTGTTGCGT (site CACCAGTCTCC) | 0.0392
43 | GTTCAGACTTGGGTTCTAACCTGTTGCCT (site GTTCAGACTAG) | 1.58
44 | TCTCAGGCTTGGGTTCTAACCTGTTGCCG (site TCTCAGGCTCG) | 0.0148

Row | Sequence | recombinant barcode read abundance (log10)
45 | CAATCCTCTTGGGTTCTAACCTGTTGCCT (site GAATCCTCTAG) | 0.0242
46 | TAAAGAGCTTGGGTTCTAACCTGTTGCGG (site TAAAGAGCTCC) | 1.57
47 | TAGCATGCTTGGGTTCTAACCTGTTGCAA (site TAGCATGCTCT) | 0.597
48 | CGGAGCTCTTGGGTTCTAACCTGTTGCCT (site CGTAGCTCTAG) | 0.0387
49 | TGTTCTCCTTGGGTTCTAACCTGTTGCCT (site GGTTCTCCTAG) | 0.064
50 | CACTGTTCTTGGGTTCTAACCTGTTGCCT (site CACTGCTCTAG) | 0.0508
51 | GAATCTACTTGGGTTCTAACCTGTTGCCT (site GCATCTACTAG) | 0.195
52 | GAGAGGTCTTGGGTTCTAACCTGTTGCCT (site GAGAGGTCTAT) | 0.203
53 | CGGAATCCTTGGGTTCTAACCTGTTGCTT (site CGGAATCCTAA) | 0.9
54 | TAGAATCCTTGGGTTCTAACCTGTTGCAA (site TAGAATCCTAT) | 0.15
55 | CAATGGCCTTGGGTTCTAACCTGTTGCCT (site CAAAGGCCTAG) | 0.126
56 | AAATGTACTTGGGTTCTAACCTGTTGCCT (site TGGGTCCCTTC) | 0.0555
57 | AGCCATCCTTGGGTTCTAACCTGTTGCAT (site AGCCATCCTAT) | 0.723
58 | ACACGGCCTTGGGTTCTAACCTGTTGCCG (site TAGTACGCTAA) | 0.145
59 | ACAAAACCTTGGGTTCTAACCTGTTGCCT (site ACAAAACCTAG) | 0.171
60 | CAATCCTCTTGGGTTCTAACCTGTTGCCT (site CAATCCTCTAG) | 1.2
61 | TCCGCTGCTTGGGTTCTAACCTGTTGCCT (site TCCGCTCCTAG) | 0.0574
62 | CATCCGTCTTGGGTTCTAACCTGTTGCCT (site CATCCGACTAG) | 0.105
63 | ACAGGAGCTTGGGTTCTAACCTGTTGCGG (site ACACGACCTCC) | 0.154
64 | GCTAGGGCTTGGGTTCTAACCTGTTGCAG (site GCAAGGGCTCG) | 0.491
65 | ACGGCTTCTTGGGTTCTAACCTGTTGCTA (site AGGGCTTCTTA) | 0.485
66 | GGTGCCTCTTGGGTTCTAACCTGTTGCAT (site GGGGCCTCTCT) | 0.258

Row | Sequence | recombinant barcode read abundance (log10)
67 | TTGGCCTCTTGGGTTCTAACCTGTTGCCT (site GTGGCGTCTAG) | 0.15
68 | CTTCATCCTTGGGTTCTAACCTGTTGCCT (site CTTCAGCCTAG) | 0.0613
69 | TGAGTTCCTTGGGTTCTAACCTGTTGCTT (site TGAGTGCCTAA) | 0.00865
70 | TTAGTCGCTTGGGTTCTAACCTGTTGCCT (site TTAGTGGCTAG) | 0.134
71 | GTGTTTGCTTGGGTTCTAACCTGTTGCCT (site GAGTTTGCTAG) | 0.0456
72 | CTACAAGCTTGGGTTCTAACCTGTTGCCT (site CTACAAGCTAG) | 1.34
73 | CGCCTTCCTTGGGTTCTAACCTGTTGCAT (site CGCCATCCTAT) | 0.121
74 | CCATAGGCTTGGGTTCTAACCTGTTGCTG (site CCATAGGCTCA) | 0.732
75 | TCTCGGACTTGGGTTCTAACCTGTTGCCT (site TCTCGGACTAG) | 0.249
76 | CAATGGCCTTGGGTTCTAACCTGTTGCCT (site CAAGGGCCTAG) | 0.27
77 | ATGGGAGCTTGGGTTCTAACCTGTTGCGA (site ATGGGAGCTTC) | 1.14
78 | TGAGGGGCTTGGGTTCTAACCTGTTGCCT (site TGAGTGGCTAG) | 0.197
79 | CGTGTAACTTGGGTTCTAACCTGTTGCTT (site CGTGTAACTAA) | 0.212
80 | CCACTGCCTTGGGTTCTAACCTGTTGCCT (site CCACTACCTAG) | 0.734
81 | ATCCAACCTTGGGTTCTAACCTGTTGCCT (site ATCCAACCTAG) | 1.89
82 | GGTTCTTCTTGGGTTCTAACCTGTTGCCT (site GTTTCTTCTAG) | 0.19
83 | GCTCAGACTTGGGTTCTAACCTGTTGCCT (site GCTCAGACTAG) | 1.78
84 | CCACGTTCTTGGGTTCTAACCTGTTGCCT (site CCACGTTCTAG) | 0.181
85 | CGAGGACCTTGGGTTCTAACCTGTTGCCT (site CCAGGACCTAG) | 0.729
86 | CACTGGGCTTGGGTTCTAACCTGTTGCAG (site CACTGGGCTCT) | 0.791

Source: the supplement of paper PMC11208160
